Patent publication US7820623B2 (priority 2006, dated 2010)
Bridge positions count the residues as written; N and C are the ends. Square brackets hold non-standard residues; d marks the D form. Peptide text beside a SMILES is read from it. 1Nal = N[C@@H](Cc1cccc2ccccc12)C(=O)O

What was measured:
[1] = test system: thapsigargin-induced IFN-g production in human whole blood; assay type: cell-based; conditions: read-out: Analogue Activity (IC50) WB/IFNg
[2] = test system: thapsigargin-induced IL-2 production in human whole blood; conditions: read-out: Analogue Activity (IC50) WB/IL-2

SMILES | IC50 [1] [pM] | IC50 [2] [pM]
CC[C@H](C)[C@@H]1NC(=O)[C@H](CCCCN)NC(=O)[C@@H](NC(=O)[C@H](CCCCN)NC(=O)[C@@H](NC(=O)[C@H](CC(N)=O)NC(=O)[C@@H](NC(=O)[C@@H](NC(=O)[C@@H](NC(=O)CN)C(C)C)[C@@H](C)CC)[C@@H](C)CC)C(C)C)CSSC[C@@H]2NC(=O)[C@H](CCCCN)NC(=O)CNC(=O)[C@H](Cc3ccccc3)NC(=O)[C@H](CCCNC(=N)N)NC(=O)[C@H](CCSC)NC(=O)[C@H](CCC(=O)O)NC(=O)[C@H](C)NC(=O)[C@H](CCCCN)NC(=O)[C@H](CCCCN)NC(=O)[C@@H]3CSSC[C@@H](C(=O)N[C@H](C(=O)N4CCC[C@H]4C(=O)N[C@@H](CCCCN)C(=O)O)[C@@H](C)O)NC(=O)[C@H](Cc4c[nH]cn4)NC(=O)[C@H](CSSC[C@H](NC(=O)[C@H](CCC(N)=O)NC(=O)[C@H](CCCNC(=N)N)NC(=O)[C@H](CO)NC1=O)C(=O)N[C@@H](CC(C)C)C(=O)N[C@@H](CCC(=O)O)C(=O)N1CCC[C@H]1C(=O)N3)NC(=O)[C@H](CCCCN)NC(=O)CNC(=O)[C@H](CC(N)=O)NC(=O)[C@H](CCSC)NC2=O [G22E] (H-GVIINVKCKISRQCLEPCKKAEMRFGKCMNGKCHCTPK-OH; disulfide 8-28, 14-33, 18-35) | 164 | 109
CC[C@H](C)[C@@H]1NC(=O)[C@H](CCCCN)NC(=O)[C@@H](NC(=O)[C@H](CCCCN)NC(=O)[C@@H](NC(=O)[C@H](CC(N)=O)NC(=O)[C@@H](NC(=O)[C@@H](NC(=O)[C@@H](NC(=O)CN)C(C)C)[C@@H](C)CC)[C@@H](C)CC)C(C)C)CSSC[C@@H]2NC(=O)[C@H](CCCCN)NC(=O)CNC(=O)[C@H](Cc3ccccc3)NC(=O)[C@H](CCCNC(=N)N)NC(=O)[C@H](CCSC)NC(=O)[C@H](Cc3cccc4ccccc34)NC(=O)[C@H](C)NC(=O)[C@H](CCCCN)NC(=O)[C@H](CCCCN)NC(=O)[C@@H]3CSSC[C@@H](C(=O)N[C@H](C(=O)N4CCC[C@H]4C(=O)N[C@@H](CCCCN)C(=O)O)[C@@H](C)O)NC(=O)[C@H](Cc4c[nH]cn4)NC(=O)[C@H](CSSC[C@H](NC(=O)[C@H](CCC(N)=O)NC(=O)[C@H](CCCNC(=N)N)NC(=O)[C@H](CO)NC1=O)C(=O)N[C@@H](CC(C)C)C(=O)N[C@@H](CCC(=O)O)C(=O)N1CCC[C@H]1C(=O)N3)NC(=O)[C@H](CCCCN)NC(=O)CNC(=O)[C@H](CC(N)=O)NC(=O)[C@H](CCSC)NC2=O [G22Nal] (H-GVIINVKCKISRQCLEPCKKA[1Nal]MRFGKCMNGKCHCTPK-OH; disulfide 8-28, 14-33, 18-35) | 10600 | 10300
CC[C@H](C)[C@@H]1NC(=O)[C@H](CCCCN)NC(=O)[C@@H](NC(=O)[C@H](CCCCN)NC(=O)[C@@H](NC(=O)[C@H](CC(N)=O)NC(=O)[C@@H](NC(=O)[C@@H](NC(=O)[C@@H](NC(=O)CN)C(C)C)[C@@H](C)CC)[C@@H](C)CC)C(C)C)CSSC[C@@H]2NC(=O)[C@H](CCCCN)NC(=O)CNC(=O)[C@H](Cc3ccccc3)NC(=O)[C@H](CCCNC(=N)N)NC(=O)[C@H](CCSC)NC(=O)[C@H](CCCNC(=N)N)NC(=O)[C@H](C)NC(=O)[C@H](CCCCN)NC(=O)[C@H](CCCCN)NC(=O)[C@@H]3CSSC[C@@H](C(=O)N[C@H](C(=O)N4CCC[C@H]4C(=O)N[C@@H](CCCCN)C(=O)O)[C@@H](C)O)NC(=O)[C@H](Cc4c[nH]cn4)NC(=O)[C@H](CSSC[C@H](NC(=O)[C@H](CCC(N)=O)NC(=O)[C@H](CCCNC(=N)N)NC(=O)[C@H](CO)NC1=O)C(=O)N[C@@H](CC(C)C)C(=O)N[C@@H](CCC(=O)O)C(=O)N1CCC[C@H]1C(=O)N3)NC(=O)[C@H](CCCCN)NC(=O)CNC(=O)[C@H](CC(N)=O)NC(=O)[C@H](CCSC)NC2=O [G22R] (H-GVIINVKCKISRQCLEPCKKARMRFGKCMNGKCHCTPK-OH; disulfide 8-28, 14-33, 18-35) | 349 | 292
CC[C@H](C)[C@@H]1NC(=O)[C@H](CCCCN)NC(=O)[C@@H](NC(=O)[C@H](CCCCN)NC(=O)[C@@H](NC(=O)[C@H](CC(N)=O)NC(=O)[C@@H](NC(=O)[C@@H](NC(=O)[C@@H](NC(=O)CN)C(C)C)[C@@H](C)CC)[C@@H](C)CC)C(C)C)CSSC[C@@H]2NC(=O)[C@H](CCCCN)NC(=O)[C@H](C)NC(=O)[C@H](Cc3ccccc3)NC(=O)[C@H](CCCNC(=N)N)NC(=O)[C@H](CCSC)NC(=O)CNC(=O)[C@H](C)NC(=O)[C@H](CCCCN)NC(=O)[C@H](CCCCN)NC(=O)[C@@H]3CSSC[C@@H](C(=O)N[C@H](C(=O)N4CCC[C@H]4C(=O)N[C@@H](CCCCN)C(=O)O)[C@@H](C)O)NC(=O)[C@H](Cc4c[nH]cn4)NC(=O)[C@H](CSSC[C@H](NC(=O)[C@H](CCC(N)=O)NC(=O)[C@H](CCCNC(=N)N)NC(=O)[C@H](CO)NC1=O)C(=O)N[C@@H](CC(C)C)C(=O)N[C@@H](CCC(=O)O)C(=O)N1CCC[C@H]1C(=O)N3)NC(=O)[C@H](CCCCN)NC(=O)CNC(=O)[C@H](CC(N)=O)NC(=O)[C@H](CCSC)NC2=O [G26A] (H-GVIINVKCKISRQCLEPCKKAGMRFAKCMNGKCHCTPK-OH; disulfide 8-28, 14-33, 18-35) | 10700 | 12100
CC[C@H](C)[C@@H]1NC(=O)[C@H](CCCCN)NC(=O)[C@@H](NC(=O)[C@H](CCCCN)NC(=O)[C@@H](NC(=O)[C@H](CC(N)=O)NC(=O)[C@@H](NC(=O)[C@@H](NC(=O)[C@@H](NC(=O)CN)C(C)C)[C@@H](C)CC)[C@@H](C)CC)C(C)C)CSSC[C@@H]2NC(=O)[C@H](CCCCN)NC(=O)[C@H](Cc3cccc4ccccc34)NC(=O)[C@H](Cc3ccccc3)NC(=O)[C@H](CCCNC(=N)N)NC(=O)[C@H](CCSC)NC(=O)CNC(=O)[C@H](C)NC(=O)[C@H](CCCCN)NC(=O)[C@H](CCCCN)NC(=O)[C@@H]3CSSC[C@@H](C(=O)N[C@H](C(=O)N4CCC[C@H]4C(=O)N[C@@H](CCCCN)C(=O)O)[C@@H](C)O)NC(=O)[C@H](Cc4c[nH]cn4)NC(=O)[C@H](CSSC[C@H](NC(=O)[C@H](CCC(N)=O)NC(=O)[C@H](CCCNC(=N)N)NC(=O)[C@H](CO)NC1=O)C(=O)N[C@@H](CC(C)C)C(=O)N[C@@H](CCC(=O)O)C(=O)N1CCC[C@H]1C(=O)N3)NC(=O)[C@H](CCCCN)NC(=O)CNC(=O)[C@H](CC(N)=O)NC(=O)[C@H](CCSC)NC2=O [G26Nal] (H-GVIINVKCKISRQCLEPCKKAGMRF[1Nal]KCMNGKCHCTPK-OH; disulfide 8-28, 14-33, 18-35) | 10700 | 9900
CC[C@H](C)[C@@H]1NC(=O)[C@H](CCCCN)NC(=O)[C@@H](NC(=O)[C@H](CCCCN)NC(=O)[C@@H](NC(=O)[C@H](CC(N)=O)NC(=O)[C@@H](NC(=O)[C@@H](NC(=O)[C@@H](NC(=O)CN)C(C)C)[C@@H](C)CC)[C@@H](C)CC)C(C)C)CSSC[C@@H]2NC(=O)[C@H](CCCCN)NC(=O)CNC(=O)[C@H](Cc3ccccc3)NC(=O)[C@H](CCCNC(=N)N)NC(=O)[C@H](CCSC)NC(=O)CNC(=O)[C@H](C)NC(=O)[C@H](CCCCN)NC(=O)[C@H](CCCCN)NC(=O)[C@@H]3CSSC[C@@H](C(=O)N[C@H](C(=O)N4CCC[C@H]4C(=O)N[C@@H](CCCCN)C(=O)O)[C@@H](C)O)NC(=O)[C@H](Cc4c[nH]cn4)NC(=O)[C@H](CSSC[C@H](NC(=O)[C@H](CCC(N)=O)NC(=O)[C@H](CCCNC(=N)N)NC(=O)[C@H](CO)NC1=O)C(=O)N[C@@H](CC(C)C)C(=O)N[C@@H](CCC(=O)O)C(=O)N1CCC[C@H]1C(=O)N3)NC(=O)[C@H](CCCCN)NC(=O)[C@H](CCC(=O)O)NC(=O)[C@H](CC(N)=O)NC(=O)[C@H](CCSC)NC2=O [G31E] (H-GVIINVKCKISRQCLEPCKKAGMRFGKCMNEKCHCTPK-OH; disulfide 8-28, 14-33, 18-35) | 111 | 95
CC[C@H](C)[C@@H]1NC(=O)[C@H](CCCCN)NC(=O)[C@@H](NC(=O)[C@H](CCCCN)NC(=O)[C@@H](NC(=O)[C@H](CC(N)=O)NC(=O)[C@@H](NC(=O)[C@@H](NC(=O)[C@@H](NC(=O)CN)C(C)C)[C@@H](C)CC)[C@@H](C)CC)C(C)C)CSSC[C@@H]2NC(=O)[C@H](CCCCN)NC(=O)CNC(=O)[C@H](Cc3ccccc3)NC(=O)[C@H](CCCNC(=N)N)NC(=O)[C@H](CCSC)NC(=O)CNC(=O)[C@H](C)NC(=O)[C@H](CCCCN)NC(=O)[C@H](CCCCN)NC(=O)[C@@H]3CSSC[C@@H](C(=O)N[C@H](C(=O)N4CCC[C@H]4C(=O)N[C@@H](CCCCN)C(=O)O)[C@@H](C)O)NC(=O)[C@H](Cc4c[nH]cn4)NC(=O)[C@H](CSSC[C@H](NC(=O)[C@H](CCC(N)=O)NC(=O)[C@H](CCCNC(=N)N)NC(=O)[C@H](CO)NC1=O)C(=O)N[C@@H](CC(C)C)C(=O)N[C@@H](CCC(=O)O)C(=O)N1CCC[C@H]1C(=O)N3)NC(=O)[C@H](CCCCN)NC(=O)[C@H](Cc1cccc3ccccc13)NC(=O)[C@H](CC(N)=O)NC(=O)[C@H](CCSC)NC2=O [G31Nal] (H-GVIINVKCKISRQCLEPCKKAGMRFGKCMN[1Nal]KCHCTPK-OH; disulfide 8-28, 14-33, 18-35) | 467 | 331
CC[C@H](C)[C@@H]1NC(=O)[C@H](CCCCN)NC(=O)[C@@H](NC(=O)[C@H](CCCCN)NC(=O)[C@@H](NC(=O)[C@H](CC(N)=O)NC(=O)[C@@H](NC(=O)[C@@H](NC(=O)[C@@H](NC(=O)CN)C(C)C)[C@@H](C)CC)[C@@H](C)CC)C(C)C)CSSC[C@@H]2NC(=O)[C@H](CCCCN)NC(=O)CNC(=O)[C@H](Cc3ccccc3)NC(=O)[C@H](CCCNC(=N)N)NC(=O)[C@H](CCSC)NC(=O)CNC(=O)[C@H](C)NC(=O)[C@H](CCCCN)NC(=O)[C@H](CCCCN)NC(=O)[C@@H]3CSSC[C@@H](C(=O)N[C@H](C(=O)N4CCC[C@H]4C(=O)N[C@@H](CCCCN)C(=O)O)[C@@H](C)O)NC(=O)[C@H](Cc4c[nH]cn4)NC(=O)[C@H](CSSC[C@H](NC(=O)[C@H](CCC(N)=O)NC(=O)[C@H](CCCNC(=N)N)NC(=O)[C@H](CO)NC1=O)C(=O)N[C@@H](CC(C)C)C(=O)N[C@@H](CCC(=O)O)C(=O)N1CCC[C@H]1C(=O)N3)NC(=O)[C@H](CCCCN)NC(=O)[C@H](CCCNC(=N)N)NC(=O)[C@H](CC(N)=O)NC(=O)[C@H](CCSC)NC2=O [G31R] | 343 | 314
